# Results published in PMC5218480 (PLoS ONE, 2017).
# System: MV-4-11 cells
# Assay: Gene expression microarray analysis (Affymetrix PrimeView) and GSEA
# Type: cell-based, human
# Set-up: RFU PODN (11730768_x_at) / Fold change /veh PODN (11730768_x_at) / RFU LINC00158 (11744669_a_at) / Fold change /veh LINC00158 (11744669_a_at) / RFU DUSP10 (11751237_a_at) / Fold change /veh DUSP10 (11751237_a_at) / RFU ID3 (11757404_x_at) / Fold change /veh ID3 (11757404_x_at) / RFU PLEKHG5 (11737974_s_at) / Fold change /veh PLEKHG5 (11737974_s_at) / RFU LRRC4B (11730491_at) / Fold change /veh LRRC4B (11730491_at) / RFU GIMAP4 (11747438_a_at) / Fold change /veh GIMAP4 (11747438_a_at) / RFU KRT8 (11758183_x_at) / Fold change /veh KRT8 (11758183_x_at) / RFU CNN1 (11734310_a_at) / Fold change /veh CNN1 (11734310_a_at) / RFU VPS37D (11726825_at) / Fold change /veh VPS37D (11726825_at) / RFU C10orf10 (11716522_x_at) / Fold change /veh C10orf10 (11716522_x_at) / RFU KIR2DL2 /// KIR2DL4 /// KIR2DL5A /// KIR2DL5B /// KIR2DS1 /// KIR2DS2 /// KIR2DS3 /// KIR2DS4 /// KIR3DL3 /// KIR3DL3 /// KIR3DS1 (11738374_at) / Fold change /veh KIR2DL2 /// KIR2DL4 /// KIR2DL5A /// KIR2DL5B /// KIR2DS1 /// KIR2DS2 /// KIR2DS3 /// KIR2DS4 /// KIR3DL3 /// KIR3DL3 /// KIR3DS1 (11738374_at) / RFU C1QL1 (11718748_at) / Fold change /veh C1QL1 (11718748_at) / RFU TMPRSS4 (11747572_a_at) / Fold change /veh TMPRSS4 (11747572_a_at) / RFU HAMP (11756126_x_at) / Fold change /veh HAMP (11756126_x_at) / RFU RNFT2 (11725882_a_at) / Fold change /veh RNFT2 (11725882_a_at) / RFU NR4A2 (11747474_a_at) / Fold change /veh NR4A2 (11747474_a_at) / RFU ABCC12 (11746883_a_at) / Fold change /veh ABCC12 (11746883_a_at) / RFU TMEM136 (11760407_x_at) / Fold change /veh TMEM136 (11760407_x_at) / RFU CLDN22 /// WWC2 (11732394_at) / Fold change /veh CLDN22 /// WWC2 (11732394_at) / RFU HLA-DPB1 (11760878_x_at) / Fold change /veh HLA-DPB1 (11760878_x_at) / RFU SPINT1 (11716480_a_at) / Fold change /veh SPINT1 (11716480_a_at) / RFU GAP43 (11754022_s_at) / Fold change /veh GAP43 (11754022_s_at) / RFU A4GNT (11735810_at) / Fold change /veh A4GNT (11735810_at) / RFU PRB3 (11715151_x_at) / Fold change /veh PRB3 (11715151_x_at) / RFU TUBB4B (11761932_at) / Fold change /veh TUBB4B (11761932_at) / RFU CAPN14 (11732068_a_at) / Fold change /veh CAPN14 (11732068_a_at) / RFU TMCC2 (11721928_a_at) / Fold change /veh TMCC2 (11721928_a_at) / RFU IRGQ (11745062_a_at) / Fold change /veh IRGQ (11745062_a_at) / RFU FAM174B (11720279_a_at) / Fold change /veh FAM174B (11720279_a_at) / RFU TMPRSS4 (11748680_a_at) / Fold change /veh TMPRSS4 (11748680_a_at) / RFU FAM212B (11763350_a_at) / Fold change /veh FAM212B (11763350_a_at) / RFU PLEKHG5 (11743358_a_at) / Fold change /veh PLEKHG5 (11743358_a_at) / RFU ZSCAN30 (11745921_a_at) / Fold change /veh ZSCAN30 (11745921_a_at) / RFU CMKLR1 (11741424_a_at) / Fold change /veh CMKLR1 (11741424_a_at) / RFU LOC101060620 /// MAPK8IP1 (11723275_at) / Fold change /veh LOC101060620 /// MAPK8IP1 (11723275_at) / RFU SPTSSB (11747773_x_at) / Fold change /veh SPTSSB (11747773_x_at) / RFU PRSS12 (11739890_at) / Fold change /veh PRSS12 (11739890_at) / RFU BIN1 (11741810_x_at) / Fold change /veh BIN1 (11741810_x_at) / RFU WNT11 (11732464_a_at) / Fold change /veh WNT11 (11732464_a_at) / RFU C10orf10 (11716521_a_at) / Fold change /veh C10orf10 (11716521_a_at) / RFU C5orf56 (11738089_at) / Fold change /veh C5orf56 (11738089_at) / RFU CYB561 (11721691_x_at) / Fold change /veh CYB561 (11721691_x_at) / RFU ANKRD19P (11752326_a_at) / Fold change /veh ANKRD19P (11752326_a_at) / RFU OR2T12 /// OR2T33 /// OR2T8 (11738714_s_at) / Fold change /veh OR2T12 /// OR2T33 /// OR2T8 (11738714_s_at) / RFU VCAN (11748164_a_at) / Fold change /veh VCAN (11748164_a_at) / RFU JSRP1 (11732532_at) / Fold change /veh JSRP1 (11732532_at) / RFU KRTAP10-11 (11738290_x_at) / Fold change /veh KRTAP10-11 (11738290_x_at) / RFU MYO3A (11730013_a_at) / Fold change /veh MYO3A (11730013_a_at) / RFU EBF3 (11725865_a_at) / Fold change /veh EBF3 (11725865_a_at) / RFU CAMK2N1 (11719241_x_at) / Fold change /veh CAMK2N1 (11719241_x_at) / RFU C5orf56 (11738088_a_at) / Fold change /veh C5orf56 (11738088_a_at) / RFU OLFML3 (11715873_a_at) / Fold change /veh OLFML3 (11715873_a_at) / RFU LOC100653217 /// NTM (11731650_a_at) / Fold change /veh LOC100653217 /// NTM (11731650_a_at) / RFU MAPK11 (11762145_a_at) / Fold change /veh MAPK11 (11762145_a_at) / RFU FIZ1 (11724087_x_at) / Fold change /veh FIZ1 (11724087_x_at) / RFU OASL (11726364_x_at) / Fold change /veh OASL (11726364_x_at) / RFU SOX15 (11748057_x_at) / Fold change /veh SOX15 (11748057_x_at) / RFU CD79A (11719716_a_at) / Fold change /veh CD79A (11719716_a_at) / RFU HIST1H1D (11736915_at) / Fold change /veh HIST1H1D (11736915_at) / RFU CASKIN2 (11723855_a_at) / Fold change /veh CASKIN2 (11723855_a_at) / RFU LOC730098 (11760151_x_at) / Fold change /veh LOC730098 (11760151_x_at) / RFU OR4N2 (11742367_at) / Fold change /veh OR4N2 (11742367_at) / RFU PRRT2 (11749266_a_at) / Fold change /veh PRRT2 (11749266_a_at) / RFU SNX32 (11753110_a_at) / Fold change /veh SNX32 (11753110_a_at) / RFU CDHR5 (11726645_a_at) / Fold change /veh CDHR5 (11726645_a_at) / RFU RCAN1 (11760418_a_at) / Fold change /veh RCAN1 (11760418_a_at) / RFU FAM167A (11723789_a_at) / Fold change /veh FAM167A (11723789_a_at) / RFU FAM26E (11764081_at) / Fold change /veh FAM26E (11764081_at) / RFU ISYNA1 (11749810_s_at) / Fold change /veh ISYNA1 (11749810_s_at) / RFU ACY1 (11761880_at) / Fold change /veh ACY1 (11761880_at) / RFU 11764098_at / Fold change /veh 11764098_at / RFU SAMD14 (11745864_x_at) / Fold change /veh SAMD14 (11745864_x_at) / RFU NPB (11741838_a_at) / Fold change /veh NPB (11741838_a_at) / RFU TMPRSS6 (11731388_a_at) / Fold change /veh TMPRSS6 (11731388_a_at) / RFU KRTAP10-2 (11738614_at) / Fold change /veh KRTAP10-2 (11738614_at) / RFU ARHGAP8 /// PRR5-ARHGAP8 (11727945_x_at) / Fold change /veh ARHGAP8 /// PRR5-ARHGAP8 (11727945_x_at) / RFU KRTAP5-7 /// NADSYN1 (11734609_at) / Fold change /veh KRTAP5-7 /// NADSYN1 (11734609_at) / RFU RASL12 (11751679_a_at) / Fold change /veh RASL12 (11751679_a_at) / RFU CDKN2B (11736163_a_at) / Fold change /veh CDKN2B (11736163_a_at) / RFU PRF1 (11729649_at) / Fold change /veh PRF1 (11729649_at) / RFU, ZNF638 /// ZNF638-IT1 / Fold change vs veh, ZNF638 /// ZNF638-IT1 / RFU, PANK3 / Fold change vs veh, PANK3 / RFU, SH3YL1 / Fold change vs veh, SH3YL1 / RFU, ZEB2 / Fold change vs veh, ZEB2 / RFU, NRIP1 / Fold change vs veh, NRIP1 / RFU, PTTG1IP / Fold change vs veh, PTTG1IP / RFU, CAPN2 / Fold change vs veh, CAPN2 / RFU, MED14 / Fold change vs veh, MED14 / RFU, SNORA58 / Fold change vs veh, SNORA58 / RFU, C1orf63 / Fold change vs veh, C1orf63 / RFU, LRRFIP1 / Fold change vs veh, LRRFIP1 / RFU, NDUFAF7 / Fold change vs veh, NDUFAF7 / RFU, SLC12A2 / Fold change vs veh, SLC12A2 / RFU, IBTK / Fold change vs veh, IBTK / RFU, ESF1 / Fold change vs veh, ESF1 / Fold change vs veh, TMEM50B / RFU, TAOK1 / Fold change vs veh, TAOK1 / RFU, ACBD3 / Fold change vs veh, ACBD3 / RFU, TMA16 / Fold change vs veh, TMA16 / RFU, RWDD3 / Fold change vs veh, RWDD3 / RFU, BCAT1 / Fold change vs veh, BCAT1 / RFU, EDEM3 / Fold change vs veh, EDEM3 / RFU, TMEM33 / Fold change vs veh, TMEM33 / RFU, WDR75 / Fold change vs veh, WDR75 / RFU, AHCTF1 / Fold change vs veh, AHCTF1 / RFU, TFRC / Fold change vs veh, TFRC / RFU, ZDHHC17 / Fold change vs veh, ZDHHC17 / RFU, NOM1 / Fold change vs veh, NOM1 / RFU, ARL8B / Fold change vs veh, ARL8B / RFU, ZBTB11 / Fold change vs veh, ZBTB11 / RFU, TAMM41 / Fold change vs veh, TAMM41 / RFU, KIAA1704 /// LOC100996395 / Fold change vs veh, KIAA1704 /// LOC100996395 / RFU, ING1 / Fold change vs veh, ING1 / RFU, TRMT61B / Fold change vs veh, TRMT61B / RFU, FUBP3 / Fold change vs veh, FUBP3 / RFU, TP53 / Fold change vs veh, TP53 / RFU, TNKS2 / Fold change vs veh, TNKS2 / RFU, ZFP14 / Fold change vs veh, ZFP14 / RFU, ACTR2 / Fold change vs veh, ACTR2 / RFU, PPP3R1 / Fold change vs veh, PPP3R1 / RFU, PIK3R1 / Fold change vs veh, PIK3R1 / RFU, HNRNPA1 / Fold change vs veh, HNRNPA1 / RFU, RNF170 / Fold change vs veh, RNF170 / RFU, ZNF28 / Fold change vs veh, ZNF28 / RFU, RNGTT / Fold change vs veh, RNGTT / RFU, OGT / Fold change vs veh, OGT / RFU, BRD1 / Fold change vs veh, BRD1 / RFU, MARS / Fold change vs veh, MARS / RFU, ZNF655 / Fold change vs veh, ZNF655 / RFU, FAHD1 / Fold change vs veh, FAHD1 / RFU, BDP1 / Fold change vs veh, BDP1 / RFU, LRRCC1 / Fold change vs veh, LRRCC1 / RFU, ARID1A / Fold change vs veh, ARID1A / RFU, ZNF146 / Fold change vs veh, ZNF146 / RFU, ZNF330 / Fold change vs veh, ZNF330 / RFU, GPN3 / Fold change vs veh, GPN3 / RFU, C9orf123 / Fold change vs veh, C9orf123 / RFU, N4BP2L2 / Fold change vs veh, N4BP2L2 / RFU, ARFIP1 / Fold change vs veh, ARFIP1 / RFU, FAM179B / Fold change vs veh, FAM179B / RFU, BCL10 / Fold change vs veh, BCL10 / RFU, UHRF1BP1L / Fold change vs veh, UHRF1BP1L / RFU, BET1 / Fold change vs veh, BET1 / RFU, CNOT2 / Fold change vs veh, CNOT2 / RFU, ZNF268 / Fold change vs veh, ZNF268 / Fold change vs veh, ZNF507 / RFU, DGCR2 / Fold change vs veh, DGCR2 / RFU, WDSUB1 / Fold change vs veh, WDSUB1 / Fold change vs veh, HSP90B1 /// MIR3652 / RFU, ADSS / Fold change vs veh, ADSS / RFU, GK / Fold change vs veh, GK / RFU, ZNF148 / Fold change vs veh, ZNF148 / RFU, TAF9 / Fold change vs veh, TAF9 / RFU, SLC1A5 / Fold change vs veh, SLC1A5 / RFU, SLMO2 / Fold change vs veh, SLMO2 / RFU, ABCC4 / Fold change vs veh, ABCC4 / RFU, LOC101060439 /// RAP1B / Fold change vs veh, LOC101060439 /// RAP1B / RFU, RFX7 / Fold change vs veh, RFX7 / RFU, GTPBP10 / Fold change vs veh, GTPBP10 / RFU, CNEP1R1 / Fold change vs veh, CNEP1R1 / RFU, BIVM-ERCC5 /// ERCC5 / Fold change vs veh, BIVM-ERCC5 /// ERCC5 / RFU, ILF3 / Fold change vs veh, ILF3 / RFU 11762660_at / Fold change /veh 11762660_at / RFU VCAN (11757783_s_at) / Fold change /veh VCAN (11757783_s_at) / RFU DDX43 (11728927_at) / Fold change /veh DDX43 (11728927_at) / RFU KRT8 (11758188_x_at) / Fold change /veh KRT8 (11758188_x_at) / RFU NKD1 (11759106_at) / Fold change /veh NKD1 (11759106_at) / RFU SRD5A1 (11742802_a_at) / Fold change /veh SRD5A1 (11742802_a_at) / RFU TPSAB1 /// TPSB2 (11721975_s_at) / Fold change /veh TPSAB1 /// TPSB2 (11721975_s_at) / RFU GSTM3 (11746129_a_at) / Fold change /veh GSTM3 (11746129_a_at) / RFU IL23R (11737362_x_at) / Fold change /veh IL23R (11737362_x_at) / RFU TMEM51 (11727254_a_at) / Fold change /veh TMEM51 (11727254_a_at) / RFU PIWIL2 (11732686_x_at) / Fold change /veh PIWIL2 (11732686_x_at) / RFU ORM1 (11744905_x_at) / Fold change /veh ORM1 (11744905_x_at) / RFU CCDC152 (11743942_at) / Fold change /veh CCDC152 (11743942_at) / RFU ECM1 (11717891_a_at) / Fold change /veh ECM1 (11717891_a_at) / RFU IL23R (11748794_a_at) / Fold change /veh IL23R (11748794_a_at) / RFU TNFAIP8L3 (11732012_x_at) / Fold change /veh TNFAIP8L3 (11732012_x_at) / RFU MBOAT4 (11741988_at) / Fold change /veh MBOAT4 (11741988_at) / RFU 11764193_at / Fold change /veh 11764193_at / RFU TMEM53 (11763286_at) / Fold change /veh TMEM53 (11763286_at) / RFU MAGEB2 (11727129_at) / Fold change /veh MAGEB2 (11727129_at) / RFU TMEM200A (11744735_a_at) / Fold change /veh TMEM200A (11744735_a_at) / RFU CCDC152 (11751479_a_at) / Fold change /veh CCDC152 (11751479_a_at) / RFU FAM211A (11726209_a_at) / Fold change /veh FAM211A (11726209_a_at) / RFU RGS16 (11746705_a_at) / Fold change /veh RGS16 (11746705_a_at) / RFU VCAN (11755009_s_at) / Fold change /veh VCAN (11755009_s_at) / RFU RHOB (11743442_s_at) / Fold change /veh RHOB (11743442_s_at) / RFU RGS16 (11720943_a_at) / Fold change /veh RGS16 (11720943_a_at) / RFU RGS16 (11720944_at) / Fold change /veh RGS16 (11720944_at) / RFU, VPS4B / Fold change vs veh, VPS4B / RFU, CREB1 / Fold change vs veh, CREB1 / RFU, DNAJC13 / Fold change vs veh, DNAJC13 / RFU, GNAQ / Fold change vs veh, GNAQ / RFU, CDK5R1 / Fold change vs veh, CDK5R1 / RFU, ZRANB3 / Fold change vs veh, ZRANB3 / RFU, CUL4A / Fold change vs veh, CUL4A / RFU, CCNY / Fold change vs veh, CCNY / RFU, UFL1 / Fold change vs veh, UFL1 / RFU, COG3 / Fold change vs veh, COG3 / RFU, DIAPH2 / Fold change vs veh, DIAPH2 / RFU, SKA2 / Fold change vs veh, SKA2 / RFU, AFF3 / Fold change vs veh, AFF3 / RFU, LMF1 / Fold change vs veh, LMF1 / RFU, IPO11 / Fold change vs veh, IPO11 / RFU, DFFB / Fold change vs veh, DFFB / RFU, FOXP1 / Fold change vs veh, FOXP1 / RFU, CARD8 / Fold change vs veh, CARD8 / RFU, STRN3 / Fold change vs veh, STRN3 / RFU, ADK / Fold change vs veh, ADK / RFU, RASSF2 / Fold change vs veh, RASSF2 / RFU, WIPF1 / Fold change vs veh, WIPF1 / RFU, LARP1B / Fold change vs veh, LARP1B / RFU, RASA1 / Fold change vs veh, RASA1 / RFU, RB1 / Fold change vs veh, RB1 / RFU, PPFIA1 / Fold change vs veh, PPFIA1 / RFU, MAT2A / Fold change vs veh, MAT2A / RFU, CCT5 / Fold change vs veh, CCT5 / RFU, WDR92 / Fold change vs veh, WDR92 / RFU, CUX1 / Fold change vs veh, CUX1 / RFU, TTC7A / Fold change vs veh, TTC7A / RFU, TMEM135 / Fold change vs veh, TMEM135 / RFU, DEPTOR / Fold change vs veh, DEPTOR / RFU, CPM / Fold change vs veh, CPM / RFU, DNAJB6 / Fold change vs veh, DNAJB6 / RFU, CACNA2D3 / Fold change vs veh, CACNA2D3 / RFU, DTX4 / Fold change vs veh, DTX4 / RFU, TFCP2 / Fold change vs veh, TFCP2 / RFU, GMCL1 /// GMCL1P1 / Fold change vs veh, GMCL1 /// GMCL1P1 / RFU, AEBP2 / Fold change vs veh, AEBP2 / RFU, SNHG1 /// SNORD22 /// SNORD25 /// SNORD26 /// SNORD27 /// SNORD28 /// SNORD29 /// SNORD31 / Fold change vs veh, SNHG1 /// SNORD22 /// SNORD25 /// SNORD26 /// SNORD27 /// SNORD28 /// SNORD29 /// SNORD31 / Fold change (Aza/veh), C12orf56 (ProbeSet 11735607_a_at) / Fold change (ACY-1035/veh), C12orf56 (ProbeSet 11735607_a_at) / Fold change (Aza/veh), FGFR1OP (ProbeSet 11751329_s_at) / Fold change (ACY-1035/veh), FGFR1OP (ProbeSet 11751329_s_at) / Fold change (Aza/veh), VPS36 (ProbeSet 11739960_a_at) / Fold change (ACY-1035/veh), VPS36 (ProbeSet 11739960_a_at) / RFU SYPL1 (11715823_x_at) / Fold change /veh SYPL1 (11715823_x_at) / RFU IGFBP7 (11715501_s_at) / Fold change /veh IGFBP7 (11715501_s_at) / RFU REEP3 (11722064_at) / Fold change /veh REEP3 (11722064_at) / RFU IGLL1 (11728026_x_at) / Fold change /veh IGLL1 (11728026_x_at): dose or concentration left out as unconfirmed
# Conditions: MV-4-11 cells, 48 hours
compound,measurement,value
Nc1ccc(-c2cccs2)cc1NC(=O)c1ccc2c(c1)cc(C1CC1)n2CCN1CCOCC1 [ACY-1035],RFU ORM1 (11744905_x_at),9.21 RFU
